A word on the IC50: it is the concentration needed to halve the response being measured. Lower therefore signals higher potency. Usually inhibition stands for the relative decrease from the control value, in per cent. Low values mean a response near the control, high ones a response far below the control.

One assay addresses Adenosine receptor (Rattus norvegicus, UniProt P29276+P25099+P30543+P28647). As to the kind of experiment: Displacement of [3H]CHA from rat brain adenosine receptor.
Assay [1] has as its target Adenosine receptor (Rattus norvegicus) (UniProt P29276+P25099+P30543+P28647). As to the kind of experiment: Displacement of [3H]CHA from rat brain adenosine receptor at 10e-4 M. Background: Displacement assays read how much labelled ligand stays bound in the presence of the test substance.

Chain of Adenosine receptor (Rattus norvegicus) (P25099 whole entry, looked up): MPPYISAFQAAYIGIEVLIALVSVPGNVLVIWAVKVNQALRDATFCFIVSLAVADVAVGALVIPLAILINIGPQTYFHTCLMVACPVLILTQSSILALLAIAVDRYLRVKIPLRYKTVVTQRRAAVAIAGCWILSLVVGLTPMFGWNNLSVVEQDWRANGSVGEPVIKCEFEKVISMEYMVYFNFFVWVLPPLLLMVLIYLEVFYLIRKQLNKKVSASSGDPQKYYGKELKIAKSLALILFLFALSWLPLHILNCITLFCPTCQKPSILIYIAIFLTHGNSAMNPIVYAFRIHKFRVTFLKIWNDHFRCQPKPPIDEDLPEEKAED
Chain of Adenosine receptor (Rattus norvegicus) (P28647 whole entry, looked up): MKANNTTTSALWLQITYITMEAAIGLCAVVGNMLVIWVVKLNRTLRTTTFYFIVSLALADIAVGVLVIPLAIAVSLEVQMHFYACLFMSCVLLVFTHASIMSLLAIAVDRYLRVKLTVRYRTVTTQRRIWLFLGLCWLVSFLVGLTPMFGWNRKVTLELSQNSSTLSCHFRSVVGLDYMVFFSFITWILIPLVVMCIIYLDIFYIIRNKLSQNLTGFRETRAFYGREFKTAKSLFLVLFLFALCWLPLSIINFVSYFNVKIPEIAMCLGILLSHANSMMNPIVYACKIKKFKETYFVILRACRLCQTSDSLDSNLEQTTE
Chain of Adenosine receptor (Rattus norvegicus) (P29276 whole entry, looked up): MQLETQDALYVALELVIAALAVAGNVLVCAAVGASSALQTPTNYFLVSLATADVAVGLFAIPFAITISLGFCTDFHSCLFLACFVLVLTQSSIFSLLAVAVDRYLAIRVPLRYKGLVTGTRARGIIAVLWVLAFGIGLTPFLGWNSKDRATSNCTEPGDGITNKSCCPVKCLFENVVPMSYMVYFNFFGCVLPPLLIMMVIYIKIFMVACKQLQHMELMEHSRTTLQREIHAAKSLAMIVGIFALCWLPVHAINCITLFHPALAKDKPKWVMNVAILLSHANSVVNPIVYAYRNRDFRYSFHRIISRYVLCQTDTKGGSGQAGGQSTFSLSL
Chain of Adenosine receptor (Rattus norvegicus) (P30543 whole entry, looked up): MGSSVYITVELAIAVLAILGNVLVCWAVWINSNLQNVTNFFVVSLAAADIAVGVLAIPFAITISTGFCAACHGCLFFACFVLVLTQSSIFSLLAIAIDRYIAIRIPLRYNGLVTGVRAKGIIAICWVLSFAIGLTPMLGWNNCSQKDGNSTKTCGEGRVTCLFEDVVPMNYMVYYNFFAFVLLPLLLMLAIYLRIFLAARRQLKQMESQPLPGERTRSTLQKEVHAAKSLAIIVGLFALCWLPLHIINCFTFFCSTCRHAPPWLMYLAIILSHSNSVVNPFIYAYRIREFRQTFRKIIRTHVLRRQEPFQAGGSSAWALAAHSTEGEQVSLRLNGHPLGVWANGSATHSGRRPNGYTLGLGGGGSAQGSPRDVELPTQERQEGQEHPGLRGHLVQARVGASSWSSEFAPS

On Adenosine receptor, `CCCNc1ncnc2c1ncn2C1O[C@H](CO)[C@@H](O)[C@H]1O` (stereo not given in full) showed an IC50 of 0.004 µM.

With `OC[C@H]1OC(n2ncc3c(NC4CCCCC4)ncnc32)[C@H](O)[C@@H]1O` (stereo not given in full), the half-inhibitory concentration (IC50) on Adenosine receptor stood at 20.2 µM.

Take `CCCNc1ncnc2c1cnn2C1O[C@H](CO)[C@@H](O)[C@H]1O` (stereo not given in full): the IC50 at Adenosine receptor worked out at 76.5 µM.

In assay [1], `C[C@@H](Cc1ccccc1)Nc1ncnc2c1cnn2[C@@H]1O[C@H](CO)[C@@H](O)[C@H]1O` (stereo in doubt) showed an inhibition of 31%.

Compound `C[C@@H](Cc1ccccc1)Nc1ncnc2c1cnn2[C@@H]1O[C@H](CO)[C@@H](O)[C@H]1O` (stereo in doubt; 1) showed an inhibition in assay [1] of 47%.

Values taken from ChEMBL document CHEMBL1122392, “C4-substituted 1-beta-D-ribofuranosylpyrazolo[3,4-d]pyrimidines as adenosine agonist analogues” (J Med Chem, 1983).
